Results reported in ChEMBL document CHEMBL1201862, “PubChem BioAssay data set” (2004).
Active and inactive are the calls of the source. Cut-off read from the data, not from the text of the source, for most assays here: actives have a measured IC50 and inactives only a lower limit.

Columns and labels:
Assay type in all cases: functional
[1] = target: T1, Sentrin-specific protease 6 (Homo sapiens, UniProt Q9GZR1);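 note: Luminescence-based dose-response confirmatory assay of SENP6 inhibition, following up an ultra-high-throughput screen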
T1 sequence (Q9GZR1 whole entry): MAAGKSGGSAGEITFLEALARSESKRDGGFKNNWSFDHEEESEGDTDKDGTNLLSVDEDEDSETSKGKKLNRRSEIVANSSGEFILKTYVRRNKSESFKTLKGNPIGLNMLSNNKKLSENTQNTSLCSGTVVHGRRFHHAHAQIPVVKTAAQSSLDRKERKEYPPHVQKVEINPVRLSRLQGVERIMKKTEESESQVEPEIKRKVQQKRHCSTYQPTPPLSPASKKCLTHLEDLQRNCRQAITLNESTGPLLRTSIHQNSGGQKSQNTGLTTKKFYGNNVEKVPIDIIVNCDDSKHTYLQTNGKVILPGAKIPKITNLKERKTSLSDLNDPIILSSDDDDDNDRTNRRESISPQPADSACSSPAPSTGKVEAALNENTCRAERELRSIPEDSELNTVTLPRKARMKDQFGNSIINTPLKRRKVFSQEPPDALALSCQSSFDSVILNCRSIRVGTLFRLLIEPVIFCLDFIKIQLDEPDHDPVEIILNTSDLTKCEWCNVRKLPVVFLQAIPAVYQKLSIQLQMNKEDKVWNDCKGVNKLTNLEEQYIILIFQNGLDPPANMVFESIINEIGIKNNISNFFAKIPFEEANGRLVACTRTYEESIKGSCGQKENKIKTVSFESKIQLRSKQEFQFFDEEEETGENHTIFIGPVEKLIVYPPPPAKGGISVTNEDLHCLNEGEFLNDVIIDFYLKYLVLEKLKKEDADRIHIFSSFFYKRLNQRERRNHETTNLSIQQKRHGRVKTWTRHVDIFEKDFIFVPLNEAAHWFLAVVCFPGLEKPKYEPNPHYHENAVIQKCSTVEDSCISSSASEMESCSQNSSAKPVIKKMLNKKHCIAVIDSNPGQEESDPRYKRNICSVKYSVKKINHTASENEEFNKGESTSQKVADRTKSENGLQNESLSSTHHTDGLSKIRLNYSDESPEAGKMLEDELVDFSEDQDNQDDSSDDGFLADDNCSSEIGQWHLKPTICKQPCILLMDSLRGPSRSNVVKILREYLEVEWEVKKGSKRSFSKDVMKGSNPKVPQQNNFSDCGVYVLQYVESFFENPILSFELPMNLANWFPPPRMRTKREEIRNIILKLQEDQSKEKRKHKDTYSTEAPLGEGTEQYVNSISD

[2] = target: T2, Sentrin-specific protease 7 (Homo sapiens, UniProt Q9BQF6);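 note: Luminescence-based dose-response confirmation of ultra-high-throughput screening hits, measuring inhibition of SENP7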
T2 sequence (Q9BQF6 whole entry): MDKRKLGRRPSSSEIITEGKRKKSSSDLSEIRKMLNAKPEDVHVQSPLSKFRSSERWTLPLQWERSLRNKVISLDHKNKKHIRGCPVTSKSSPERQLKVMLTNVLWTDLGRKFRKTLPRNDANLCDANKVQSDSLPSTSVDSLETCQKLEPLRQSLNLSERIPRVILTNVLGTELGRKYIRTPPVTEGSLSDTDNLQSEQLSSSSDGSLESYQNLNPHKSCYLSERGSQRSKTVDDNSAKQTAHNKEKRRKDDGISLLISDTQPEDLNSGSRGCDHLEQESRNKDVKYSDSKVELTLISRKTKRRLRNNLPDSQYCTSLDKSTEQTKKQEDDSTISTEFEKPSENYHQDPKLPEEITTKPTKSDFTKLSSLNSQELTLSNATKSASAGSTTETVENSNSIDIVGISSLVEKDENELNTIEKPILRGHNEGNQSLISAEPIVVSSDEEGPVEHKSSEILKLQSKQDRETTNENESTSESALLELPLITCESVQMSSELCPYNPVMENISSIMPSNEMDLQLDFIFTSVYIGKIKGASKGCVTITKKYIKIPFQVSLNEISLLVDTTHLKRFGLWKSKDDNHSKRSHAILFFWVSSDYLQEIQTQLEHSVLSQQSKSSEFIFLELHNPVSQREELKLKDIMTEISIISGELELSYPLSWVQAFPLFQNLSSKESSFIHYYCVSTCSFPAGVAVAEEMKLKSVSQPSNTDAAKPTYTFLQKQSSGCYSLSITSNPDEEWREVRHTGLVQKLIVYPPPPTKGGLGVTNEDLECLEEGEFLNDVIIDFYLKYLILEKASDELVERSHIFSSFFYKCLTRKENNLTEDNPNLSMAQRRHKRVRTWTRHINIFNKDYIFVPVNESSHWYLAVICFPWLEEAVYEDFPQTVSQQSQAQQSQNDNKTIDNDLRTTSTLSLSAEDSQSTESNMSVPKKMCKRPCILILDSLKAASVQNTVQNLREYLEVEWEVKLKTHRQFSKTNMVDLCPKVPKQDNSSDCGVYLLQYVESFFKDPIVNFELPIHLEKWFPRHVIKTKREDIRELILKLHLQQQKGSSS

Caspase-3 = target: T3, Caspase-3 (Homo sapiens, UniProt P42574);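 note: Dose-response selectivity test against caspase-3 for candidate inhibitors of sentrin-specific proteases (SENPs)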
T3 sequence (P42574 whole entry): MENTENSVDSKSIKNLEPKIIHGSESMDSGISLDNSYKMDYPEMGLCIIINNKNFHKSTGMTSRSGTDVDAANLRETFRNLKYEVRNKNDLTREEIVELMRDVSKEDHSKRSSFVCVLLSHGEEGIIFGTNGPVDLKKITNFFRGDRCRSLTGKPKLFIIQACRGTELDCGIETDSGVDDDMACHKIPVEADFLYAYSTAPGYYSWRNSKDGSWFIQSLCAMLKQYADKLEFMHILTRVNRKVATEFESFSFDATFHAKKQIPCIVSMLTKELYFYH

[3] = target: T4, Sentrin-specific protease 8 (Homo sapiens, UniProt Q96LD8);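 note: luminescence read-out of SENP8 inhibition, dose-response confirmation following an ultra-high-throughput screen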
T4 sequence (Q96LD8 whole entry): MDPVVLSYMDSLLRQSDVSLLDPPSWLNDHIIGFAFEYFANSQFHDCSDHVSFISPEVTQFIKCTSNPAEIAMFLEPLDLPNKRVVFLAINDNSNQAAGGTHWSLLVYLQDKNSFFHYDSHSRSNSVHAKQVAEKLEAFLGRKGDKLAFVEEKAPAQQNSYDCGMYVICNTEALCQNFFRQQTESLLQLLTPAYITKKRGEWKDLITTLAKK

[4] = blockers of bursicon-stimulated LGR2 cAMP reporter – cell-based, HEK293, CRE-luciferase reporter, cherry pick, set 2, dose response (AID 743343);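 note: transfected cells were stimulated with diluted bursicon conditioned medium after compound addition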

O=c1[nH]c(N2CCOCC2)cc2ccccc12
active: IC50 [1] < 1.55 µM | IC50 [2] 1.96 µM | IC50 (Caspase-3) 1.59 µM | IC50 [3] 2.12 µM

O=[N+]([O-])c1ccc(Sc2nc3ccccc3o2)c([N+](=O)[O-])c1
active: AC50 [4] 24.9 µM

O=C1c2ccccc2C(=O)C12OC2c1cccc2ccccc12 (centres undefined)
active: IC50 [1] 2.37 µM | IC50 [2] 2.86 µM | IC50 (Caspase-3) 91.9 µM | IC50 [3] 4.53 µM

CCC(COC)Oc1cc(NCc2ccccc2)c2ncn(C(C)C)c2c1 (centres undefined)
active: IC50 [1] 3.62 µM | IC50 [2] 5.61 µM | AC50 [4] 23.1 µM | IC50 (Caspase-3) 6.47 µM | IC50 [3] 4.26 µM
